Results: the supplement of paper PMC11208160

test: recombinant barcode read abundance after kanamycin selection (control-corrected) (log10(CPM+1)); higher = more efficient recombination; sequences stand for … in AGTGCAGAGAAAATCGGCCAGTTTTCTCTGCCTGCAGTCCGCATGCCGT…AGATTTATGCAGCGGACTGCCTTTCTCCCAAAGTGATAAACCGGACAGTATCATGGACCGGTTTTCCCGGTAATCCGTATTTGCAAGGTTGGTTTCACT; site = the 11-nt target
How it was run: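 Reported as log10(CPM+1), each value stands for recombination efficiency. That efficiency is the averaged, control-corrected counts per million of barcodes found at recombinant junctions. Cells from a pooled E. coli library pairing targets with IS621 bridge RNA target-binding loops were plated twice on chloramphenicol/ampicillin LB agar (control) and twice on chloramphenicol/ampicillin/kanamycin with 0.1 mM IPTG.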
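Further: IS621 recombinase and bridge RNA in Escherichia coli cells.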

Sequence	recombinant barcode read abundance (log10)
TTGGTCACTTGGGTTCTAACCTGTTGCCA (site GGAAGGCCTAA)	0.0841
TCCGGCGCTTGGGTTCTAACCTGTTGCGG (site CTTACTACTTG)	0.0112
AGATTTACTTGGGTTCTAACCTGTTGCCT (site AGATTTACTAG)	0.143
TACAAGCCTTGGGTTCTAACCTGTTGCCT (site TACAAGCCTAG)	0.338
CCAGCAGCTTGGGTTCTAACCTGTTGCCT (site CCAGAAGCTAG)	0.0762
AGCATTGCTTGGGTTCTAACCTGTTGCCT (site AGCGTTGCTAG)	0.724
GGTTGGGCTTGGGTTCTAACCTGTTGCAG (site GGCTGGGCTCG)	0.0851
GCCATGACTTGGGTTCTAACCTGTTGCCT (site GCCATAACTAG)	0.067
TAGCTCACTTGGGTTCTAACCTGTTGCAT (site TAGATCACTAT)	0.0546
GTCCAGACTTGGGTTCTAACCTGTTGCCT (site GTGCAGACTAG)	0.508
GATAGAACTTGGGTTCTAACCTGTTGCTT (site GATAGAACTAA)	0.94
GCATCTCCTTGGGTTCTAACCTGTTGCCT (site ACATCTCCTAG)	0.4
GGTAACCCTTGGGTTCTAACCTGTTGCGG (site GGTTACCCTCC)	0.425
GATGAGACTTGGGTTCTAACCTGTTGCCG (site GATGAGACTCG)	2.22
CGTTCTCCTTGGGTTCTAACCTGTTGCTA (site GCAAGGTCTAT)	0.0644
GACATCCCTTGGGTTCTAACCTGTTGCCT (site GACATCGCTAG)	0.0465
AGTAAGTCTTGGGTTCTAACCTGTTGCCT (site ATTAAGTCTAG)	0.0108
GTCAAGACTTGGGTTCTAACCTGTTGCCG (site GTCAAGACTCG)	1.94
ACGACTCCTTGGGTTCTAACCTGTTGCCT (site ACGACTTCTAG)	0.0781
AACTTCTCTTGGGTTCTAACCTGTTGCCT (site AACTTCGCTAG)	0.0209
TTAACTACTTGGGTTCTAACCTGTTGCTA (site TTAACTACTAA)	0
ATGGCCTCTTGGGTTCTAACCTGTTGCCT (site ATGACCTCTAG)	0.822

Sequence	recombinant barcode read abundance (log10)
AAGACAGCTTGGGTTCTAACCTGTTGCCT (site AAGACAGCTAG)	1.19
GGCTATGCTTGGGTTCTAACCTGTTGCCT (site GTCTATGCTAG)	0.0729
CGGGCAGCTTGGGTTCTAACCTGTTGCCT (site CGCGCAGCTAG)	0.0844
CTACCAGCTTGGGTTCTAACCTGTTGCCT (site CTACCATCTAG)	0.0991
ATTGGGGCTTGGGTTCTAACCTGTTGCAG (site ATTAGGGCTCG)	0.266
GAGGCTCCTTGGGTTCTAACCTGTTGCCC (site GAGGCTCCTGG)	1.26
TAGGTGCCTTGGGTTCTAACCTGTTGCAT (site TAGGTCCCTAT)	0.0424
GGATCCACTTGGGTTCTAACCTGTTGCCA (site GGATACACTTG)	0.049
CACGAGACTTGGGTTCTAACCTGTTGCCT (site CACGAGTCTAG)	0.424
TCCACAACTTGGGTTCTAACCTGTTGCCT (site TCCACAGCTAG)	0.283
TCTACCTCTTGGGTTCTAACCTGTTGCCT (site TCTACCTCTAG)	1.19
AGGAGCCCTTGGGTTCTAACCTGTTGCTG (site AGGAGCCCTGA)	0.0914
TCCTAGGCTTGGGTTCTAACCTGTTGCGC (site TCTTAGGCTAC)	0.161
TACTGCTCTTGGGTTCTAACCTGTTGCTT (site TACAGCTCTAA)	0.0305
TAAGTGTCTTGGGTTCTAACCTGTTGCCT (site TACGTGTCTAG)	0.171
CGGAACCCTTGGGTTCTAACCTGTTGCCG (site CGGAGCCCTTG)	0.11
GGGAACACTTGGGTTCTAACCTGTTGCCA (site GGGAACACTTG)	1.74
ACGCCTCCTTGGGTTCTAACCTGTTGCCA (site ACCCCTCCTTG)	0.0961
CGCTCGTCTTGGGTTCTAACCTGTTGCCT (site CGCTTGTCTAG)	0.163
AGAGGGACTTGGGTTCTAACCTGTTGCCT (site AGAGAGACTAG)	1.25
ATATGAGCTTGGGTTCTAACCTGTTGCCG (site ATATGAGCTCG)	0.307
TGACATGCTTGGGTTCTAACCTGTTGCCT (site TGAGATGCTAG)	0.0442

Sequence	recombinant barcode read abundance (log10)
GTTTAATCTTGGGTTCTAACCTGTTGCCT (site GTTTAATCTAG)	0.216
ATGCCAACTTGGGTTCTAACCTGTTGCCT (site ATGCCTACTAG)	0.00977
ATGCCAACTTGGGTTCTAACCTGTTGCCT (site ATGCCCACTAG)	0.059
AACACGACTTGGGTTCTAACCTGTTGCCT (site GACAGGACTAG)	0.165
TAGAACTCTTGGGTTCTAACCTGTTGCCA (site TAGAACTCTAG)	0.254
ATTTGCACTTGGGTTCTAACCTGTTGCCT (site ATTTGTACTAG)	0.0454
TATTATCCTTGGGTTCTAACCTGTTGCCT (site TATTACCCTAG)	0.0929
GAAAAGGCTTGGGTTCTAACCTGTTGCCT (site GAAAGGGCTAG)	0.0324
GAGCTACCTTGGGTTCTAACCTGTTGCCC (site GAGCTACCTTG)	0.85
TCTTGCTCTTGGGTTCTAACCTGTTGCCT (site TCTTGCTCTAG)	0.574
CCTCACTCTTGGGTTCTAACCTGTTGCGG (site CCTCAGTCTTC)	0
GACACAACTTGGGTTCTAACCTGTTGCCA (site CGGCTCCCTAA)	0.208
AGGATTACTTGGGTTCTAACCTGTTGCCT (site AGGACTTCTAG)	0.161
GACGTTGCTTGGGTTCTAACCTGTTGCCT (site GACGTTGCTAG)	1.32
ACTAGTCCTTGGGTTCTAACCTGTTGCTT (site ACTAGTCCTAG)	0.189
ACATATACTTGGGTTCTAACCTGTTGCTT (site CGTAGCCCTCC)	0.125
CAGAGTACTTGGGTTCTAACCTGTTGCCT (site CAGAGTACTAG)	0.216
GTGCACTCTTGGGTTCTAACCTGTTGCGG (site GTGCACTCTCC)	2.13
AAAATATCTTGGGTTCTAACCTGTTGCCT (site AAAATATCTAG)	0.438
GGGTACCCTTGGGTTCTAACCTGTTGCCT (site GTGTACCCTAG)	0.133
AAGCAAACTTGGGTTCTAACCTGTTGCCT (site AAGCTAACTAG)	0.218
TACAAGGCTTGGGTTCTAACCTGTTGCGG (site TACAAGTCTCC)	0.292
